Laboratory results published in ChEMBL document CHEMBL5537111, “Structure and function of SARS-CoV and SARS-CoV-2 main proteases and their inhibition: A comprehensive review” (Eur J Med Chem, 2023).

Assay: Inhibition of SARS-CoV-2 3CL protease Q189A mutant by FRET assay
Parameters: species or system Severe acute respiratory syndrome coronavirus 2

SMILES: CC1(C)CCC(CN2CCN(c3ccc(C(=O)NS(=O)(=O)c4ccc(NCC5CCOCC5)c([N+](=O)[O-])c4)c(Oc4cnc5[nH]ccc5c4)c3)CC2)=C(c2ccc(Cl)cc2)C1 [VENETOCLAX]
- IC50: 3.18 µM
